Laboratory results reported in PubChem BioAssay (NCI).
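96-well plates; 48 h exposure; 5 concentrations. Endpoints by linear interpolation between flanking doses. Not reached: highest tested concentration assigned. The concentration for full growth arrest is given as TGI.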

What was measured:
Assay in all cases: NCI tumour cell line growth inhibition, 48 h
[1] = tested on: CCRF-CEM leukemia
[2] = tested on: DU-145 prostate
[3] = tested on: HCT-15 colon
[4] = tested on: HOP-62 NSCLC
[5] = tested on: HS 578T breast
[6] = tested on: HT29 colon
[7] = tested on: K-562 leukemia
[8] = tested on: KM12 colon
[9] = tested on: LOX IMVI melanoma
[10] = tested on: MALME-3M melanoma
[11] = tested on: OVCAR-8 ovarian
[12] = tested on: PC-3 prostate
[13] = tested on: SN12C renal
[14] = tested on: SW-620 colon
[15] = tested on: T-47D breast
[16] = tested on: U251 CNS
[17] = tested on: UACC-257 melanoma
[18] = tested on: HCC-2998 colon
[19] = tested on: NCI-H226 lung

CCOC(=O)CC[C@H](NC(=O)c1ccc(CNc2nc3cc(C(F)(F)F)ccc3nc2C(=O)OCC)cc1)C(=O)OCC
TGI [1]: > 100 µM | TGI [2]: > 100 µM | TGI [3]: > 100 µM | TGI [4]: > 46 µM | TGI [5]: 19.7 µM | TGI [6]: > 100 µM | TGI [7]: > 100 µM | TGI [8]: > 100 µM | TGI [9]: > 100 µM | TGI [10]: 50.3 µM | TGI [11]: > 100 µM | TGI [12]: > 89.3 µM | TGI [13]: > 100 µM | TGI [14]: > 100 µM | TGI [15]: 60.8 µM | TGI [16]: 18.5 µM | TGI [17]: > 100 µM

COc1cccc([C@@H]2C/C(=N\NC(=O)C(=O)N[C@@H](C)c3ccccc3)c3cc4c(cc3N2)OCO4)c1
TGI [1]: > 100 µM | TGI [2]: > 100 µM | TGI [18]: > 100 µM | TGI [3]: > 100 µM | TGI [4]: > 100 µM | TGI [5]: > 100 µM | TGI [7]: > 100 µM | TGI [8]: > 100 µM | TGI [9]: > 100 µM | TGI [19]: > 100 µM | TGI [12]: > 100 µM | TGI [13]: > 100 µM | TGI [14]: > 100 µM | TGI [15]: > 100 µM | TGI [16]: > 100 µM | TGI [17]: > 100 µM

CCOC(=O)c1ccc(OCc2nc3cc(C(F)(F)F)ccc3nc2-c2ccccc2)cc1
TGI [1]: > 100 µM | TGI [2]: > 100 µM | TGI [18]: > 100 µM | TGI [3]: > 100 µM | TGI [4]: > 100 µM | TGI [5]: > 100 µM | TGI [6]: > 100 µM | TGI [7]: > 100 µM | TGI [8]: > 100 µM | TGI [9]: > 100 µM | TGI [19]: > 100 µM | TGI [11]: > 100 µM | TGI [12]: > 100 µM | TGI [13]: > 100 µM | TGI [14]: > 100 µM | TGI [15]: > 100 µM | TGI [16]: > 100 µM | TGI [17]: > 100 µM

Cc1cc(C)c(-n2c(C)c(C)c(C#N)c2N)c(C)c1
TGI [1]: 45.5 µM | TGI [2]: > 100 µM | TGI [3]: > 100 µM | TGI [4]: > 100 µM | TGI [5]: > 100 µM | TGI [6]: > 100 µM | TGI [7]: 78.5 µM | TGI [8]: > 100 µM | TGI [9]: 40.8 µM | TGI [10]: 87.8 µM | TGI [19]: > 100 µM | TGI [11]: > 100 µM | TGI [12]: 89 µM | TGI [13]: > 100 µM | TGI [14]: > 100 µM | TGI [15]: > 100 µM | TGI [16]: 49.7 µM | TGI [17]: 60.8 µM

CC(=O)OC(=C(C#N)C#N)c1nccnc1C(=O)O
TGI [2]: > 100 µM | TGI [18]: > 100 µM | TGI [3]: > 100 µM | TGI [5]: > 100 µM | TGI [6]: > 100 µM | TGI [7]: > 100 µM | TGI [8]: > 100 µM | TGI [9]: > 100 µM | TGI [10]: > 100 µM | TGI [19]: > 100 µM | TGI [11]: > 100 µM | TGI [12]: > 100 µM | TGI [13]: > 100 µM | TGI [14]: > 100 µM | TGI [15]: > 100 µM | TGI [16]: > 100 µM | TGI [17]: > 100 µM

CC(=O)Oc1c(C)cc2c(c1C)C(C)(C)CN2C(=O)C(C)(C)C
TGI [1]: > 100 µM | TGI [2]: > 100 µM | TGI [18]: > 100 µM | TGI [3]: > 100 µM | TGI [4]: > 100 µM | TGI [5]: > 100 µM | TGI [6]: > 100 µM | TGI [7]: > 100 µM | TGI [8]: > 100 µM | TGI [9]: > 100 µM | TGI [19]: > 100 µM | TGI [11]: > 100 µM | TGI [12]: > 100 µM | TGI [13]: > 100 µM | TGI [14]: > 100 µM | TGI [15]: 96.2 µM | TGI [16]: > 100 µM | TGI [17]: > 100 µM

CC(SC(=S)N(C)C)C(=O)Nc1nnc(-c2ccc(Cl)cc2)o1 (stereo unspecified)
TGI [2]: > 100 µM | TGI [18]: > 100 µM | TGI [3]: > 100 µM | TGI [4]: > 100 µM | TGI [5]: > 100 µM | TGI [6]: 51.9 µM | TGI [7]: > 100 µM | TGI [9]: 33.8 µM | TGI [10]: > 100 µM | TGI [19]: > 100 µM | TGI [11]: > 100 µM | TGI [12]: > 100 µM | TGI [13]: > 100 µM | TGI [14]: > 100 µM | TGI [15]: > 100 µM | TGI [16]: > 100 µM | TGI [17]: > 100 µM

Clc1ccc(-c2c3nc(c(-c4ccc(Cl)cc4)c4ccc([nH]4)c(-c4ccc(Cl)cc4)c4nc(c(-c5ccc(Cl)cc5)c5ccc2[nH]5)C=C4)C=C3)cc1
TGI [1]: > 100 µM | TGI [18]: > 100 µM | TGI [3]: > 100 µM | TGI [4]: > 100 µM | TGI [5]: > 100 µM | TGI [6]: > 100 µM | TGI [7]: > 100 µM | TGI [8]: > 100 µM | TGI [9]: > 100 µM | TGI [10]: > 100 µM | TGI [11]: > 100 µM | TGI [12]: > 100 µM | TGI [13]: > 100 µM | TGI [14]: > 100 µM | TGI [15]: > 100 µM | TGI [16]: > 100 µM | TGI [17]: > 100 µM

Cn1c(=O)c2c(nc(N3CCOCC3)n2CCCNCC(O)c2ccc(O)c(O)c2)n(C)c1=O (stereo unspecified)
TGI [1]: > 100 µM | TGI [2]: > 100 µM | TGI [3]: > 100 µM | TGI [4]: > 100 µM | TGI [5]: > 100 µM | TGI [6]: > 100 µM | TGI [7]: > 100 µM | TGI [8]: > 100 µM | TGI [9]: > 100 µM | TGI [10]: > 100 µM | TGI [19]: > 100 µM | TGI [11]: > 100 µM | TGI [12]: > 100 µM | TGI [13]: > 100 µM | TGI [14]: > 100 µM | TGI [15]: > 100 µM | TGI [16]: > 100 µM | TGI [17]: > 100 µM

Cc1c2ccccc2c(CSC(=N)N)c2ccccc12
TGI [1]: 0.0588 µM | TGI [2]: 0.406 µM | TGI [3]: 1.96 µM | TGI [4]: 1.99 µM | TGI [5]: 0.475 µM | TGI [6]: 1.05 µM | TGI [7]: 1.4 µM | TGI [8]: 0.545 µM | TGI [9]: 1.06 µM | TGI [10]: 0.356 µM | TGI [19]: 0.679 µM | TGI [11]: 6.43 µM | TGI [12]: 0.829 µM | TGI [13]: 0.903 µM | TGI [14]: 0.947 µM | TGI [15]: 5.32 µM | TGI [16]: 0.818 µM | TGI [17]: 0.406 µM

COc1ccc(OC)c2sc(N3C(=O)/C(=C/c4ccc(SC)cc4)N=C3c3ccccc3)nc12
TGI [1]: 22.2 µM | TGI [2]: > 100 µM | TGI [18]: > 100 µM | TGI [3]: > 100 µM | TGI [4]: 40 µM | TGI [5]: 60.8 µM | TGI [6]: 53.3 µM | TGI [7]: > 100 µM | TGI [8]: 52.5 µM | TGI [9]: 64.4 µM | TGI [11]: 92.6 µM | TGI [12]: 50.6 µM | TGI [13]: 70.2 µM | TGI [14]: > 100 µM | TGI [15]: 87 µM | TGI [16]: 32.3 µM | TGI [17]: > 100 µM

CCOC(=O)C1C(c2ccco2)C2(C#N)C(=N)OC1(C)C2(C#N)C#N (stereo unspecified)
TGI [1]: > 100 µM | TGI [2]: > 100 µM | TGI [18]: > 100 µM | TGI [3]: > 100 µM | TGI [5]: > 100 µM | TGI [6]: > 100 µM | TGI [7]: > 100 µM | TGI [8]: > 100 µM | TGI [9]: > 100 µM | TGI [10]: > 100 µM | TGI [19]: > 100 µM | TGI [11]: > 100 µM | TGI [12]: > 100 µM | TGI [13]: > 100 µM | TGI [14]: > 100 µM | TGI [15]: > 100 µM | TGI [16]: > 100 µM | TGI [17]: > 100 µM

NNC(=O)CC(=O)Nc1ccccc1Cl
TGI [1]: > 100 µM | TGI [2]: > 100 µM | TGI [3]: > 100 µM | TGI [4]: > 100 µM | TGI [5]: > 100 µM | TGI [6]: > 100 µM | TGI [7]: > 100 µM | TGI [8]: > 100 µM | TGI [9]: > 100 µM | TGI [10]: > 100 µM | TGI [11]: > 100 µM | TGI [12]: > 100 µM | TGI [13]: > 100 µM | TGI [14]: > 100 µM | TGI [15]: > 100 µM | TGI [16]: > 100 µM | TGI [17]: > 100 µM
